Laboratory results as given in patent US12642805B2, “Use of oxygenated cholesterol sulfates for treating at least one of insulin resistance, diabetes, and prediabetes” (Medicis Pharmaceutical Corporation, priority 2020, dated 2026).
Where two headings read alike, the source gives them in different places.

Experiment: single oral dose pharmacokinetic study in healthy and NASH subjects
Assay type: in vivo, human
Settings: for Cmax: po, read-out: Cmax, Mean
Protocol: The present Example was a randomized, dose ranging, single dose safety and pharmacokinetic study of 25HC3S administered to subjects with NASH and control healthy subjects. […] For each cohort, 10 subjects with NASH were enrolled which were further classified into cirrhotic and non-cirrhotic. Each subject received only one dose of study treatment. The second cohort was dosed after a review of safety and tolerability data from Cohort 1.

## C[C@H](CCCC(C)(C)O)[C@H]1CC[C@H]2[C@@H]3CC=C4C[C@@H](OS(=O)(=O)O)CC[C@]4(C)[C@H]3CC[C@]12C [25HC3S, 25-hydroxycholesterol-3-sulfate]
200 mg single oral dose, Healthy
  CL/F, Mean: 171.25 ± 28.60 L/h
Cohort 1 (50 mg) healthy subjects
  Plasma 25HC3S levels detectable up to, post-dose: up to 12 hours
Cohort 2
  AUC0-inf higher in NASH subjects: approximately 20%
  Geometric mean AUC0-12 and AUC0-last higher in NASH than healthy subjects: approximately 30%
Cohort 2 (200 mg) healthy subjects
  Plasma 25HC3S levels detectable up to, post-dose: up to 16 hours
Cohorts 1 and 2
  geometric mean Cmax increase, NASH over healthy subjects: 18-24%
NASH vs healthy
  exposure (AUC parameters), increasing trends in NASH subjects: up to 31%
human, plasma, oral, 200 mg, across both healthy and NASH subject groups, 50 and 200 mg, read-out: T1/2, range of mean values
  half-life: 1.67 to 2.51 h
human, plasma, 50 mg, 50 mg single oral dose, Healthy
  Cmax: 94 ± 27.3 ng/mL
human, plasma, 200 mg, 200 mg single oral dose, Healthy
  Cmax: 260 ± 54.8 ng/mL
